Reference: patent publication US20050282818A1, “Ubiquitin ligase inhibitors” (Rigel Pharmaceuticals, Inc., priority 2004, published 2005)
pIC50: −log10 of the molar value. Read-outs that look alike come from different tables or passages of the source.

Legend:
H1299 cells = test: Cell proliferation PAD assay, H1299; type: cell-based; settings: Homo sapiens, 48 hours
Outline: (§1)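 Plate 2,000 cells per well, then add compound after 24 h as duplicate 6.3-fold dilutions, with 10 mM master stock diluted 500-fold on transfer. Grow 48 h at 37 °C in 5% CO2, fix with formamide, stain nuclei with DAPI, and count cells by imaging.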

A549 cells = test: Cell proliferation PAD assay, A549; type: cell-based; settings: Homo sapiens, 48 hours
Outline: as §1

TRAF6/Uev1A/Ubc13 = molecular target: T1, TRAF6/Uev1A/Ubc13 (Homo sapiens, UniProt Q9Y4K3); test: TRAF6/Uev1A/Ubc13 plate-based ubiquitin ligase assay; type: biochemical
T1 sequence (Q9Y4K3 1-522): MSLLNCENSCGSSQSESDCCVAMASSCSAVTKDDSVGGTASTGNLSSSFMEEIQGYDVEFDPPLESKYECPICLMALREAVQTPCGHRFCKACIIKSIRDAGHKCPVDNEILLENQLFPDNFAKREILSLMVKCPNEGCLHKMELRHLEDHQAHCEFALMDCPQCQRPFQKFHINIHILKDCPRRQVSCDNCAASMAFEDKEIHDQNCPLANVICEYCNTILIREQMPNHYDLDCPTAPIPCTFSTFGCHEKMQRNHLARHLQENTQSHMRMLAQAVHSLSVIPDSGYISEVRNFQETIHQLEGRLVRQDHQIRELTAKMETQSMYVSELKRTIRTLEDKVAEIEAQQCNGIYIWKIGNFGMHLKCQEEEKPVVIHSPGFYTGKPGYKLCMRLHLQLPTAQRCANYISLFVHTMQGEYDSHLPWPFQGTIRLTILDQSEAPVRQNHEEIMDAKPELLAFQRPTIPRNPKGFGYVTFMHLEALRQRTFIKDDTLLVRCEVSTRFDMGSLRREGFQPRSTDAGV
Outline: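 Ligase activity was read as luminescence from anti-Flag/HRP detection of Flag-ubiquitin bound to casein-blocked Ni-plates alongside His-ubiquitin after a 1 h room-temperature reaction. Buffer: 62.5 mM Tris pH 7.5, 6.25 mM MgCl2, 1.0 mM DTT, 2 μM ATP; E1, Uev1a/Ubc13 and TRAF6 added last to start. IC50s derived across compound concentrations.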

[1] = NCI-H1299, 3pt, read-out: H1299 3pt
[2] = NCI-H1299, 6pt, read-out: H1299 6pt

Row | pIC50 (H1299 cells; [1]) | pIC50 (A549 cells; 3pt, read-out: A549 3pt) | pIC50 (TRAF6/Uev1A/Ubc13) | pIC50 (H1299 cells; [2]) | pIC50 (A549 cells; 6pt, read-out: A549 6pt) | Structure (SMILES)
1 | ≤ 4.70 | ≤ 4.70 | ≤ 4.70 | – | – | O=[N+]([O-])c1ccc(Oc2ccc(NS(=O)(=O)c3cccc4nonc34)cc2)cc1 [compound 101, N-[4-(4-nitrophenoxy)phenyl]-2,1,3-benzoxadiazole-4-sulfonamide]
2 | ≤ 4.70 | ≤ 4.70 | ≤ 4.70 | – | – | O=S(=O)(Nc1ccc(Oc2ccccc2)cc1)c1cccc2nonc12 [compound 102, N-(4-phenoxyphenyl)-2,1,3-benzoxadiazole-4-sulfonamide]
3 | ≤ 4.70 | ≤ 4.70 | ≤ 4.70 | – | – | O=S(=O)(Nc1ccc(Oc2cc(C(F)(F)F)ccn2)cc1)c1cccc2nonc12 [compound 103, N-(4-{[4-(trifluoromethyl)pyridin-2-yl]oxy}phenyl)-2,1,3-benzoxadiazole-4-sulfonamide]
4 | ≤ 4.70 | ≤ 4.70 | ≤ 4.70 | – | – | O=S(=O)(Nc1ccc(Oc2ccc(Cl)cc2)cc1)c1cccc2nonc12 [compound 104, N-[4-(4-chlorophenoxy)phenyl]-2,1,3-benzoxadiazole-4-sulfonamide]
5 | ≤ 4.70 | 4.70 to 6.00 | ≤ 4.70 | – | – | O=[N+]([O-])c1ccc(N2CCN(c3ccncc3)CC2)c2nonc12 [compound 108, 4-nitro-7-(4-pyridin-4-ylpiperazin-1-yl)-2,1,3-benzoxadiazole]
6 | ≤ 4.70 | 4.70 to 6.00 | ≤ 4.70 | – | – | O=S(=O)(Nc1cccc2nsnc12)c1ccc(Oc2cccnc2)cc1 [compound 116, N-2,1,3-benzothiadiazol-4-yl-4-(pyridin-3-yloxy)benzenesulfonamide]
7 | ≤ 4.70 | ≤ 4.70 | 4.70 to 6.00 | – | – | N#Cc1cccnc1N1CCN(c2ccc([N+](=O)[O-])c3nonc23)CC1 [compound 118, 2-[4-(7-nitro-2,1,3-benzoxadiazol-4-yl)piperazin-1-yl]nicotinonitrile]
8 | ≤ 4.70 | ≤ 4.70 | 4.70 to 6.00 | – | – | O=S(=O)(Oc1ccc(N2CCN(S(=O)(=O)c3cccc4nonc34)CC2)cc1)c1cccc2nonc12 [compound 139, 4-[4-(2,1,3-benzoxadiazol-4-ylsulfonyl)piperazin-1-yl]phenyl 2,1,3-benzoxadiazole-4-sulfonate]
9 | ≤ 4.70 | ≤ 4.70 | ≤ 4.70 | – | – | O=[N+]([O-])c1ccc(N2CCN(c3ccccc3)CC2)c2nonc12 [compound 143, 4-nitro-7-(4-phenylpiperazin-1-yl)-2,1,3-benzoxadiazole]
10 | ≤ 4.70 | ≤ 4.70 | 4.70 to 6.00 | – | – | O=[N+]([O-])c1ccc(N2CCN(c3c(Cl)cncc3Cl)CC2)c2nonc12 [compound 151, 4-[4-(3,5-dichloropyridin-4-yl)piperazin-1-yl]-7-nitro-2,1,3-benzoxadiazole]
11 | 4.70 to 6.00 | 4.70 to 6.00 | ≤ 4.70 | – | – | Cc1cc(N2CCN(c3ccc([N+](=O)[O-])c4nonc34)CC2)c2ccccc2n1 [compound 152, 2-methyl-4-[4-(7-nitro-2,1,3-benzoxadiazol-4-yl)piperazin-1-yl]quinoline]
12 | ≤ 4.70 | ≤ 4.70 | ≤ 4.70 | – | – | Cc1ccnc(N2CCN(c3ccc([N+](=O)[O-])c4nonc34)CC2)c1 [compound 154, 4-[4-(4-methylpyridin-2-yl)piperazin-1-yl]-7-nitro-2,1,3-benzoxadiazole]
13 | ≤ 4.70 | ≤ 4.70 | 4.70 to 6.00 | – | – | O=[N+]([O-])c1ccc(N2CCN(c3ccc4ccccc4n3)CC2)c2nonc12 [compound 155, 2-[4-(7-nitro-2,1,3-benzoxadiazol-4-yl)piperadin-1-yl]quinoline]
14 | ≤ 4.70 | ≤ 4.70 | ≤ 4.70 | – | – | Cc1cccnc1N1CCN(c2ccc([N+](=O)[O-])c3nonc23)CC1 [compound 156, 4-[4-(3-methylpyridin-2-yl)piperazin-1-yl]-7-nitro-2,1,3-benzoxadiazole]
15 | ≤ 4.70 | ≤ 4.70 | ≤ 4.70 | – | – | Cc1cccc(N2CCN(c3ccc([N+](=O)[O-])c4nonc34)CC2)n1 [compound 162, 4-[4-(6-methylpyridin-2-yl)piperazin-1-yl]-7-nitro-2,1,3-benzoxadiazole]
16 | ≤ 4.70 | ≤ 4.70 | 4.70 to 6.00 | – | – | COc1ccc(S(=O)(=O)N2CCN(c3ncc(C(F)(F)F)cc3Cl)CC2)c2nonc12 [compound 163, 4-({4-[3-chloro-5-(trifluoromethyl)pyridin-2-yl]piperazin-1-yl}sulfonyl)-7-methoxy-2,1,3-benzoxadiazole]
17 | ≤ 4.70 | 4.70 to 6.00 | ≤ 4.70 | ≤ 4.70 | ≤ 4.70 | O=S(=O)(c1ccc(F)c2nonc12)N1CCN(c2ncccc2C(F)(F)F)CC1 [compound 165, 4-fluoro-7-({4-[3-(trifluoromethyl)pyridin-2-yl]piperazin-1-yl}sulfonyl)-2,1,3-benzoxadiazole]
18 | – | – | 4.70 to 6.00 | ≤ 4.70 | 4.70 to 6.00 | O=S(=O)(c1ccc(N2CCN(c3ncccc3C(F)(F)F)CC2)c2nonc12)N1CCN(c2ncccc2C(F)(F)F)CC1 [compound 166, 4-{4-[3-(trifluoromethyl)pyridin-2-yl]piperazin-1-yl}-7-({4-[3-(trifluoromethyl)pyridin-2-yl]piperazin-1-yl}sulfonyl)-2,1,3-benzoxadiazole]
19 | 4.70 to 6.00 | 4.70 to 6.00 | ≤ 4.70 | ≤ 4.70 | ≤ 4.70 | O=S(=O)(c1ccc(Cl)c2nonc12)N1CCC(O)(c2ccc(Cl)cc2)CC1 [compound 168, 1-[(7-chloro-2,1,3-benzoxadiazol-4-yl)sulfonyl]-4-(4-chlorophenyl)piperidin-4-ol]
20 | 4.70 to 6.00 | 4.70 to 6.00 | ≤ 4.70 | ≤ 4.70 | ≤ 4.70 | O=S(=O)(c1ccc(Cl)c2nonc12)N1CCN(c2ccc(O)cc2)CC1 [compound 172, 4-{4-[(7-chloro-2,1,3-benzoxadiazol-4-yl)sulfonyl]piperazin-1-yl}phenol]
21 | – | – | ≤ 4.70 | 4.70 to 6.00 | 4.70 to 6.00 | O=S(=O)(c1ccc(N2CCN(c3ccc(O)cc3)CC2)c2nonc12)N1CCN(c2ccc(O)cc2)CC1 [compound 173, 4-[4-({7-[4-(4-hydroxyphenyl)piperazin-1-yl]-2,1,3-benzoxadiazol-4-yl}sulfonyl)piperazin-1-yl]phenol]
22 | 4.70 to 6.00 | 4.70 to 6.00 | ≤ 4.70 | 4.70 to 6.00 | 4.70 to 6.00 | COC(=O)c1ccc(NS(=O)(=O)c2ccc(Sc3cccc4cccnc34)c3nonc23)cc1 [compound 174, methyl 4-({[7-(quinolin-8-ylthio)-2,1,3-benzoxadiazol-4-yl]sulfonyl}amino)benzoate]
23 | ≤ 4.70 | ≤ 4.70 | 4.70 to 6.00 | ≤ 4.70 | ≤ 4.70 | N#Cc1cccnc1N1CCN(S(=O)(=O)c2ccc(Sc3cccc4cccnc34)c3nonc23)CC1 [compound 176, 2-(4-{[7-(quinolin-8-ylthio)-2,1,3-benzoxadiazol-4-yl]sulfonyl}piperazin-1-yl)nicotinonitrile]

Row | Structure (SMILES) | pIC50 (H1299 cells; [1]) | pIC50 (A549 cells; 3pt, read-out: A549 3pt) | pIC50 (TRAF6/Uev1A/Ubc13) | pIC50 (H1299 cells; [2]) | pIC50 (A549 cells; 6pt, read-out: A549 6pt)
24 | O=[N+]([O-])c1ccc(N2CCN(c3ccc(Cl)c(C(F)(F)F)c3)CC2)c2nonc12 [compound 105, {4-[4-chloro-3-(trifluoromethyl)phenyl]piperazin-1-yl}-7-nitro-2,1,3-benzoxadiazole] | ≤ 4.70 | ≤ 4.70 | ≤ 4.70 | – | –
25 | O=[N+]([O-])c1ccc(N2CCN(c3cccc(C(F)(F)F)c3)CC2)c2nonc12 [compound 106, 4-nitro-7-{4-[3-(trifluoromethyl)phenyl]piperazin-1-yl}-2,1,3-benzoxadiazole] | ≤ 4.70 | ≤ 4.70 | ≤ 4.70 | – | –
26 | CN1CCN(c2ccc([N+](=O)[O-])c3nonc23)CC1 [compound 110, 4-(4-methylpiperazin-1-yl)-7-nitro-2,1,3-benzoxadiazole] | ≤ 4.70 | ≤ 4.70 | ≤ 4.70 | – | –
27 | O=[N+]([O-])c1ccc(N2CCNCC2)c2nonc12 [compound 112, 4-nitro-7-piperazin-1-yl-2,1,3-benzoxadiazole] | ≤ 4.70 | ≤ 4.70 | ≤ 4.70 | – | –
28 | O=c1[nH]c2ccccc2n1C1CCN(c2ccc([N+](=O)[O-])c3nonc23)CC1 [compound 160, 1-[1-(7-nitro-2,1,3-benzoxadiazol-4-yl)piperidin-4-yl]-1,3-dihydro-2H-benzimidazol-2-one] | ≤ 4.70 | ≤ 4.70 | ≤ 4.70 | – | –
29 | CC1CN(c2ccc([N+](=O)[O-])c3nonc23)CC(C)O1 (stereo not shown) [compound 161, 4-(2,6-dimethylmorpholin-4-yl)-7-nitro-2,1,3-benzoxadiazole] | ≤ 4.70 | ≤ 4.70 | ≤ 4.70 | – | –
